Assay results from patent publication US20260285924A1, “PEPTIDE THERAPEUTICS” (priority 2023, published 2026).

Experiments:
[1] = system: A-to-I RNA editing reporter (ADAR) in A375; assay: A-to-I PepTile (REPTILE) screen: A-to-I editing of dsRNA hairpin reporter by NGS; type: cell-based, human; conditions: for % A-to-I editing (IFNα): IFNα 6000 U/ml for 48 hours; for % A-to-I editing (Basal): no treatment
Description: (§1) FIGS. 12A-12D. A-to-I PepTile screen. (A) Composition of A-to-I PepTile linrary screen, and schematic description of the lentiviral expression vector. (B) Experimental workflow. A375 cells were transduced at low MOI, and then treated or not with IFNα for 48 hrs. RNA was extracted and Peptide_ADARreporter RNA species were amplified and sequenced by NGS. (C) Dot plot of A-to-I PepTile library effect on A-to-I editing with or without IFNα treatment. Red line is the mean A-to-I editing of all the 8088 peptides (>100 read counts) no treatment: 25.75% IFNα: 37.6%. (D) Dot plot of A-to-I PepTile library fitness effect upon IFNα for 48 hrs.
FIGS. 17A-17F show A-to-I RNA Editing PiTile (REPTILE) screen in A375. (A) A-to-I RNA Editing PiTile (REPTILE) library design consist of fragmentation of all known ADAR1, ADAR2 interactors and all human double stranded RNA-binding protein into 40 amino acid long peptide. This library was then cloned into a lentivirus vector that also encode a DNA-encoded RNA loop reporter (A-to-I Rep) that is edited by ADAR proteins in cells at the RNA level. When the construct is expressed, the RNA loop gets edited on a single Adenosine, while the 40-mer peptide get expressed at the protein level. Then we can measure the impact of the peptide expression on the editing rate of the RNA loop reporter by sequencing (NGS and Sanger). (B) Experimental workflow of REPTILE screen in A375 cell line. Cells were transduced with the REPTILE library, and then treated for 48 hours with IFNα. Following the treatment, RNA was harvested, converted into cDNA and amplicon library containing peptide Identity (barcode) linked to the RNA loop reporter were prepared for NGS. (C) Result of the A375 REPTILE screen in the no treatment condition. Each dot represents a unique peptide that is associated with an A-to-I editing rate that was measured on the RNA loop. (D) Result of the A375 REPTILE screen in the IFNα condition. Each dot represents a unique peptide that is associated with an A-to-I editing rate that was measured on the RNA loop. Red line represent the A-to-I editing mean, Dash blue line represent 2 times the standard deviation of the % A-to-I editing across all the datasets. This cutoff was used to defined peptides hits that modulate RNA A-to-I editing. (E) Peptide A-to-I Inhibitor Hits intersection between no treatment (% A-to-I editing<15%) and IFNα (% A-to-I editing<27%) conditions. (F) Peptide A-to-I Enhancers Hits intersection between no treatment (% A-to-I editing>36%) and IFNα (% A-to-I editing>47%) conditions.
Provided herein is a screening methodology to measure the effect of small peptide on A-to-I RNA editing in situ and screen thousands of peptides in a single experiment. First, a library of peptides with the potential of impairing A-to-I editing was designed and built. ADAR enzymes edit RNA only on double-stranded RNA structures and via ADAR's double stranded RNA-Binding Domain (dsRBD). […] The A-to-I PepTile library is composed of 19 Human proteins having dsRBD and 34 known protein-protein interactors of ADAR1/2. All these proteins were tiled into 40-mer peptides every 4 amino acids (FIG. 12A). To measure A-to-I editing, a biosensor consisting of a 71 bp dsRNA hairpin structure that gets A-to-I edited at a rate of 25% in A375 melanoma cells, and ~37% upon IFNα treatment was used. This A-to-I editing reporter is fused with DNA sequence encoding for a peptide from the A-to-I PepTile library. The A-to-I PepTile plasmid pool (10304 elements) was used to produced lentiviruses and transduced A375 cells at a low multiplicity of infection (MOI) (FIG. 12B). A part of the infected cells was treated with IFNα at 6000 U/ml for 48 hours, and then bulk RNA of the basal and treated condition was harvested. RNA was then retrotranscribed into cDNA and sequenced by Next-Generation Sequencing (NGS). […]

[2] = system: A375 cells; assay: A-to-I PepTile screen: fitness effect upon IFNα (PepTile abundance untreated vs treated); type: cell-based, human
Description: as §1
Provided herein is a screening methodology to measure the effect of small peptide on A-to-I RNA editing in situ and screen thousands of peptides in a single experiment. First, a library of peptides with the potential of impairing A-to-I editing was designed and built. ADAR enzymes edit RNA only on double-stranded RNA structures and via ADAR's double stranded RNA-Binding Domain (dsRBD). […] The A-to-I PepTile library is composed of 19 Human proteins having dsRBD and 34 known protein-protein interactors of ADAR1/2. All these proteins were tiled into 40-mer peptides every 4 amino acids (FIG. 12A). To measure A-to-I editing, a biosensor consisting of a 71 bp dsRNA hairpin structure that gets A-to-I edited at a rate of 25% in A375 melanoma cells, and ~37% upon IFNα treatment was used. This A-to-I editing reporter is fused with DNA sequence encoding for a peptide from the A-to-I PepTile library. The A-to-I PepTile plasmid pool (10304 elements) was used to produced lentiviruses and transduced A375 cells at a low multiplicity of infection (MOI) (FIG. 12B). A part of the infected cells was treated with IFNα at 6000 U/ml for 48 hours, and then bulk RNA of the basal and treated condition was harvested. RNA was then retrotranscribed into cDNA and sequenced by Next-Generation Sequencing (NGS). With the sequencing data, the A-to-I editing percentage of the RNA reporter for each PepTile is calculated since both elements are encoded on the same transcript. Moreover, with this screen one can also measure the abundance of the PepTiles between the untreated and treated conditions and determine Fitness score associated to every PepTile. To ensure a robust and more accurate A-to-I editing % estimation a cut-off of 100 read counts was set for each PepTile. […] SEQ ID NOs: 2125-2147 are A-to-I peptide inhibitors and SEQ ID NOs: 2148-2210 are A-to-I activators. In addition, 117 PepTiles were identified that either synergize (SEQ ID NOs: 2211-2243) or protect (SEQ ID NOs: 2244-2327) to IFNα-induced cell death (FIG. 12D and Table 5). These PepTiles are potential new therapeutic agents that can modulate the Interferon pathway. They may be beneficial in treating inflammatory conditions and may also enhance the effectiveness of cancer immunotherapy through synergistic effects.

[3] = IFNα 6000 U/ml for 48 hours vs untreated

MPVSALHQFAQMQRVQLDLKETVTTGNVMGPYFAFCAVVDG [ADAD1_25]
% A-to-I editing (IFNα) [1]: 25.66%
% A-to-I editing (Basal) [1]: 14.03%
Fitness Score IFNα [2, 3]: 0.99

MPYERQQFESVEWYNNRNQDNYVSWSDSEDDDEDEEIEEKE [DICER1_98]
% A-to-I editing (IFNα) [1]: 52.37%
% A-to-I editing (Basal) [1]: 37.74%
Fitness Score IFNα [2, 3]: -1.79

MEPAKGGEKLQIKKTVSFHLYISTAPCGDGALFDKSCSDRA [ADAR_236]
% A-to-I editing (IFNα) [1]: 55.48%
% A-to-I editing (Basal) [1]: 39.57%
Fitness Score IFNα [2, 3]: -1.07

MRRDHQLREAPDTAEKAKSHLEVPLEENVNRRVLEEGSVEA [CCDC124_27]
% A-to-I editing (IFNα) [1]: 24.35%
% A-to-I editing (Basal) [1]: 12.18%
Fitness Score IFNα [2, 3]: 1.71

MMGGPLPPHLALKAENNSEVGASGYGVPGPTWDRGANLKDY [DHX9_28]
% A-to-I editing (IFNα) [1]: 54.35%
% A-to-I editing (Basal) [1]: 49.65%
Fitness Score IFNα [2, 3]: 1.46

MSQVRAFRHTSTLAAMKLMTALVNVALNLSIHQDNTQRQYE [STAG1_54]
% A-to-I editing (IFNα) [1]: 54.81%
% A-to-I editing (Basal) [1]: 43.52%
Fitness Score IFNα [2, 3]: 0.28

MESTIVEPKQNENRLSDTKPNDNKQNNGRSETTKSRPETPK [NIPBL_167]
% A-to-I editing (IFNα) [1]: 52.90%
% A-to-I editing (Basal) [1]: 39.35%
Fitness Score IFNα [2, 3]: 1.11

MECMHKLGNSCEFRLLSKEGPAHEPKFQYCVAVGAQTFPSV [ADAR_156]
% A-to-I editing (IFNα) [1]: 20.83%
% A-to-I editing (Basal) [1]: 13.60%
Fitness Score IFNα [2, 3]: 0.35

MDTLDPELFVECTECGRKMHQICVLHHEIIWPAGFVCDGCL [EP300_310]
% A-to-I editing (IFNα) [1]: 26.86%
% A-to-I editing (Basal) [1]: 14.29%
Fitness Score IFNα [2, 3]: -1.83

MGELSSADEKRYRALKRTAERELLMNADVICCTCVGAGDPR [UPF1_147]
% A-to-I editing (IFNα) [1]: 24.68%
% A-to-I editing (Basal) [1]: 13.30%
Fitness Score IFNα [2, 3]: -0.63

MAPVAAHTVTAAYAPAAATVAVARPAPVAVAAAATAAAYGG [ZFR_18]
% A-to-I editing (IFNα) [1]: 49.47%
% A-to-I editing (Basal) [1]: 37.25%
Fitness Score IFNα [2, 3]: 1.04

MSILARLDMQRGVHGRLMDNSTSVREAAVELLGRFVLCRPQ [NIPBL_452]
% A-to-I editing (IFNα) [1]: 50.76%
% A-to-I editing (Basal) [1]: 38.35%
Fitness Score IFNα ([2]; A375, PepTile abundance upon IFNα treatment, negative = synthetic lethal, positive = protector): 2.31
Fitness Score IFNα [2, 3]: 2.31

MNMMLFEVVKMGKSAMQSVVDDWIESYKHDRDIALLDLINF [STAG2_21]
% A-to-I editing (IFNα) [1]: 58.92%
% A-to-I editing (Basal) [1]: 43.58%
Fitness Score IFNα [2, 3]: 0.65

MSKVTRAQIEDTLRRDHQLREAPDTAEKAKSHLEVPLEENV [CCDC124_24]
% A-to-I editing (IFNα) [1]: 13.63%
% A-to-I editing (Basal) [1]: 12.50%
Fitness Score IFNα [2, 3]: -1.31

MLANFGPRINDIKRIIQSREREMKDLKEKMNQVEDEVFEEF [SMC1A_186]
% A-to-I editing (IFNα) [1]: 56.93%
% A-to-I editing (Basal) [1]: 55.39%
Fitness Score IFNα [2, 3]: 0.69

MRPFQALPREQSPPPPLQTSSGAEVMDVGSGGDGQSELPAE [DGCR8_7]
% A-to-I editing (IFNα) [1]: 54.04%
% A-to-I editing (Basal) [1]: 40.23%
Fitness Score IFNα [2, 3]: 0.13

MVMNLLESAGFSRSNPYYIVKQGKINQMATAPDSQRLKLLR [SMC3_31]
% A-to-I editing (IFNα) [1]: 54.66%
% A-to-I editing (Basal) [1]: 41.67%
Fitness Score IFNα [2, 3]: 1.72

MQQGTPGMALGSMGSVVKSEASSSPPVVTSSSHSRAPCQAG [SOX2_58]
% A-to-I editing (IFNα) [1]: 53.74%
% A-to-I editing (Basal) [1]: 41.35%
Fitness Score IFNα [2, 3]: -0.36

MFKKRAVEITGAGPGASSVCNSAPGSGPSSPNSSHSTIAEN [HDAC5_74]
% A-to-I editing (IFNα) [1]: 55.72%
% A-to-I editing (Basal) [1]: 38.94%
Fitness Score IFNα [2, 3]: 0.29

MVEKAVSSAAGPLGPGDAVRRVLECVATGTLLTDGPGLQDP [ZFR2_205]
% A-to-I editing (IFNα) [1]: 54.50%
% A-to-I editing (Basal) [1]: 45.00%
Fitness Score IFNα [2, 3]: 0.12

MSELNQKRPQYIKAKENTSHKIKKLEAAKKSLQNAQKHYKK [SMC1A_73]
% A-to-I editing (IFNα) [1]: 23.54%
% A-to-I editing (Basal) [1]: 11.31%
Fitness Score IFNα [2, 3]: -0.76

MGFRGNSGGDYRGPSGGYRGSGGFQRGGGRGAYGTGYFGQG [DHX9_307]
% A-to-I editing (IFNα) [1]: 47.59%
% A-to-I editing (Basal) [1]: 40.04%
Fitness Score IFNα [2, 3]: 1.50

MQPQTTINKEQFSKRKNDTLDPELFVECTECGRKMHQICVL [EP300_306]
% A-to-I editing (IFNα) [1]: 20.81%
% A-to-I editing (Basal) [1]: 12.58%
Fitness Score IFNα [2, 3]: -0.25

MGLSPSIDTLDHIRALDRLQEVPHEGPMCDLLWSDPDDRGG [PPP2CB_43]
% A-to-I editing (IFNα) [1]: 62.33%
% A-to-I editing (Basal) [1]: 46.04%
Fitness Score IFNα [2, 3]: -0.38

MPLRGWPLELLCEKSIGTANRPMGAGEALRRVLECLASGIV [ILF3_62]
% A-to-I editing (IFNα) [1]: 55.34%
% A-to-I editing (Basal) [1]: 39.78%
Fitness Score IFNα [2, 3]: -0.73
